# Source: patent US20210137992A1, “HYPOXIA-INDUCIBLE FACTOR-2A AS A TARGET IN PREVENTION/TREATMENT OF PARKINSON'S DISEASE” (QIngdao University, priority 2019, published 2021)
# Assays:
# HIF-1α [1] = assay: Western blot of HIF-1α protein expression in primary cultured astrocytes; assay type: cell-based, Wistar suckling rats
# Experimental: (§1) The astrocytes were inoculated into a six-well plate pre-coated with polylysine at a density of 1.5×10^5/ml. In order to detect the activation of HIF-1α and HIF-2α by 6-OHDA and the corresponding protein expression of DMT1 and FPN1, the cells were divided into groups and treated with drugs. After being treated with 10 μM of 6-OHDA for 24 h, the cells were collected to extract the total protein.
# (§2) In order to test the influence of inhibiting the activation of HIF-1α on the protein expression of DMT1 and FPN1 in the astrocytes, the cells were pre-treated with 10 μM of Bay87-2243 for 48 h, and then added with 10 μM of 6-OHDA for co-action for 24 h. Then the total protein was extracted.
# (§3) The activation and inhibition of HIF-1α and HIF-2α by 6-OHDA and the corresponding protein expression of DMT1 and FPN1 were detected by Western blots.
# (§4) After drug treatment of the cells, the medium was completely blotted up, the cells were washed with pre-chilled PBS for three times, and 100 μl of the cell lysis buffer: RIPA lysis buffer (strong) was added to each well, and the cells were lysed on ice for 0.5 h.
# (§5) The concentration of the extracted protein was detected by the BCA protein quantitative kit. The protein was sub-packaged according to 30 μg per serving, brought to the same volume with 0.01M PBS, then added with a 4× loading buffer and mixed well, subjected to a water batch above 95° C. for 5 min to denature the protein, and cryopreserved in the refrigerator at −80° C.
# (§6) The corresponding primary antibodies were diluted with 5% skim milk: HIF-1α was diluted at 1:1000, HIF-2α was diluted at 1:1000, DMT1 was diluted at 1:800, FPN1 was diluted at 1:800, β-actin was diluted at 1:10000, and incubated in the shaker at 4° C. overnight. It was rinsed with the 1×TBST buffer for 3 times, each time for 10 min.
# (§7) The intensity of bands was subjected to density analysis with the Vision Works LS image acquisition and analysis software.
# HIF-2α [2] = assay: Western blot of HIF-2α protein expression in primary cultured astrocytes; assay type: cell-based
# Experimental: as §1
# as §2, with “HIF-2α” for “HIF-1α”, “the HIF-2α translation inhibitor” for “Bay87-2243”, “24” for “48”
# as §3, §4, §5, §6, §7
# HIF-1α [3] = assay: Western blot of HIF-1α protein expression in primary cultured VM neurons; assay type: cell-based, Wistar mice; settings: 10 μM 6-OHDA for 24 h, compared to control
# Experimental: (§8) In order to detect the activation of HIF-1α and HIF-2α in the VM neurons by 6-OHDA, the cells were divided into groups and treated with drugs. After being treated with 10 μM of 6-OHDA for 24 h, the cells were collected to extract the total protein.
# as §4, §5, §6, §7
# HIF-2α [4] = assay: Western blot of HIF-2α protein expression in primary cultured VM neurons; assay type: cell-based, Wistar mice; settings: 10 μM 6-OHDA for 24 h, compared to control
# Experimental: as §8, §4, §5, §6, §7
# DMT1 = assay: Western blot of DMT1 protein expression in primary cultured astrocytes; assay type: cell-based, Wistar suckling rats
# Experimental: as §1
# as §2, with “HIF-2α” for “HIF-1α”, “the HIF-2α translation inhibitor” for “Bay87-2243”, “24” for “48”
# as §2, §3, §4, §5, §6, §7
# FPN1 = assay: Western blot of FPN1 protein expression in primary cultured astrocytes; assay type: cell-based, Wistar suckling rats
# Experimental: as §1
# as §2, with “HIF-2α” for “HIF-1α”, “the HIF-2α translation inhibitor” for “Bay87-2243”, “24” for “48”
# as §2, §3, §4, §5, §6, §7
# [5] = system: primary cultured astrocytes; assay: Calcein fluorescence ferrous iron influx (transport-in) assay; assay type: cell-based, Wistar suckling mice; settings: 1 mM ferrous iron perfusion
# Experimental: (§9) The primary-cultured astrocytes were plated at a plating density of 5×10^4/well in a 24-well plate with a polylysine-treated cover slip placed in each well. After the astrocytes were cultured for 48 h, the medium was blotted up, and the cells were rinsed gently with the DMEM/F12 basic medium preheated at 37° C. The cells were then treated in groups with 6 wells in each group, and were continually cultured in a 5% CO2 incubator at 37° C. for 24 h. The medium was blotted up. The cells were rinsed once with HBS preheated at 37° C., added with calcein (0.5 μM), placed in an incubator at 37° C. for 0.5 h for loading, then rinsed with HBS for three times, and then detected.
# Calcein-AM was a membrane-permeable non-fluorescent molecule. […] Calcein had high affinity for all of divalent metal ions, and could be combined with various divalent metal ions in the cells and then converted into non-fluorescent substances, which leads to the quenching of the fluorescence. In this experimental system, other divalent metal ions such as Mg^2+ and Ca^2+ were removed, and only a Fe^2+ solution was used for perfusion to ensure that the fluorescence change of intracellular calcein was caused by its binding with Fe^2+. The level of cheatable iron in the cells was estimated by determining the decrease degree of the fluorescence intensity. […]
# [6] = system: primary cultured astrocytes; assay: Calcein fluorescence iron efflux (transport-out) assay with DFO perfusion; assay type: cell-based, Wistar suckling rats; settings: 1 mM DFO perfusion
# Experimental: as §9
# Calcein-AM was a membrane-permeable non-fluorescent molecule. […] Calcein had high affinity for all of divalent metal ions, and could be combined with various divalent metal ions in the cells and then converted into non-fluorescent substances, which leads to the quenching of the fluorescence. […] The level of cheatable iron in the cells was estimated by determining the decrease degree of the fluorescence intensity. The fluorescence intensity of calcein was inversely proportional to the content of free iron in the cells. When the level of iron in the cells was increased, the free iron combined with calcein, the fluorescence was quenched, and thus the fluorescence intensity was decreased, otherwise it was increased. […]
# [7] = primary cultured astrocytes, 10 μM 6-OHDA for 24 h, compared with control
# [8] = astrocytes, 10 μM 6-OHDA for 24 h, compared with control group
# [9] = astrocytes treated with 10 μM BAY 87-2243 alone, compared with control group
# [10] = astrocytes, 10 μM BAY 87-2243 pretreatment 48 h then 10 μM 6-OHDA 24 h, compared to 6-OHDA group
# [11] = astrocytes treated with 10 μM HIF-2α inhibitor alone, compared to control group
# [12] = astrocytes, 10 μM HIF-2α inhibitor pretreatment 24 h then 10 μM 6-OHDA 24 h, compared with 6-OHDA group
# [13] = pretreatment with 10 μM HIF-2α inhibitor for 24 h, 10 μM 6-OHDA
structure (smiles),measurement,setting,value
"NCCc1cc(O)c(O)cc1O [6-OHDA, 6-hydroxydopamine]",expression of HIF-1α,HIF-1α [1]; [7],increased
same,expression of HIF-2α,HIF-2α [2]; [7],increased
same,protein level of HIF-1α,HIF-1α [3],remained unchanged
same,protein level of HIF-2α,HIF-2α [4],remained unchanged
same,expression of DMT1,DMT1; [8],increased
same,expression of FPN1,FPN1; [8],increased
same,ferrous iron influx (calcein fluorescence quenching),"[5]; cells treated with 10 μM 6-OHDA, compared with controls",more rapid fluorescence quenching
same,iron efflux (calcein fluorescence intensity),[6]; 10 μM 6-OHDA-treated group,marked increase in fluorescence intensity
Cc1cc(-c2nc(-c3ccc(OC(F)(F)F)cc3)no2)nn1Cc1ccnc(N2CCN(C3CC3)CC2)c1 [BAY 87-2243],expression of HIF-1α,HIF-1α [1]; [9],decreased
same,expression of HIF-1α,"HIF-1α [1]; astrocytes, 10 μM BAY 87-2243 pretreatment 48 h then co-treatment with 10 μM 6-OHDA 24 h, compared with 6-OHDA group",decreased
same,expression of DMT1,DMT1; [9],remained unchanged
same,expression of DMT1,DMT1; [10],did not change
same,expression of FPN1,FPN1; [9],remained unchanged
same,expression of FPN1,FPN1; [10],did not change
COC(=O)c1sccc1N/N=C(\C#N)S(C)(=O)=O [HIF-2α inhibitor],expression of HIF-2α,"HIF-2α [2]; astrocytes treated with 10 μM HIF-2α inhibitor alone, compared with control group",decreased
same,expression of HIF-2α,"HIF-2α [2]; astrocytes, 10 μM HIF-2α inhibitor pretreatment 24 h then co-treatment with 10 μM 6-OHDA 24 h, compared with 6-OHDA group",decreased
same,expression of DMT1,DMT1; [11],decreased
same,expression of DMT1,DMT1; [12],decreased
same,expression of FPN1,FPN1; [11],decreased
same,expression of FPN1,FPN1; [12],decreased
same,effect on 6-OHDA-increased ferrous iron influx (calcein fluorescence),[5]; [13],fully blocked
same,effect on 6-OHDA-caused ferrous iron efflux (calcein fluorescence),[6]; [13],fully blocked
